Marks after values point to notes of the source that are not given here.
Assays:
Type in all cases: biochemical
[1] = target: T1, pBChEV3 (A199S/S287G/A328W/Y332G) (Homo sapiens, UniProt P06276, A227S/A356W/S315G/Y360G); test: Inhibition of BTC hydrolysis activity of pBChEV3; settings: for Fold increase in sensitivity relative to WT pBChE: pBChEV3 vs WT pBChE
T1 construct: hexahistidine (C); barley alpha-amylase signal peptide (N); made in house; host or cells: Nicotiana benthamiana (transient, MagnICON/TMV vector)
T1 sequence (P06276 29-602 A227S/S315G/A356W/Y360G): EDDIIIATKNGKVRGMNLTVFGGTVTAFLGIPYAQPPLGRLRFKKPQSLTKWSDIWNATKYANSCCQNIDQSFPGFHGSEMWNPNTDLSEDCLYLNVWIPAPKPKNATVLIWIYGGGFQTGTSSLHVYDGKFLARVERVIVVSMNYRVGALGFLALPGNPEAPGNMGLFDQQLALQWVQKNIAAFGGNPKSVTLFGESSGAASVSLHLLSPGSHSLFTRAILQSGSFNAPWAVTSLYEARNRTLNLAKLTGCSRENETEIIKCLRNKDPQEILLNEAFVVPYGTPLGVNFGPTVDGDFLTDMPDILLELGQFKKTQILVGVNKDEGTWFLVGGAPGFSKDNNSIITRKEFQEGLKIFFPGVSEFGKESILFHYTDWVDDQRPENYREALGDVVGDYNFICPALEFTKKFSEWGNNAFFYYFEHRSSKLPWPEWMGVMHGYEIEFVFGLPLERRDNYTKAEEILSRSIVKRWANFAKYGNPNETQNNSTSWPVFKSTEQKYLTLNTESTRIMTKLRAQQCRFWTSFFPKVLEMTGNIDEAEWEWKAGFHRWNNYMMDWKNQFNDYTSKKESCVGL
Protocol: (§1) To this end, BTC hydrolysis was analyzed following a 30-minute incubation with the inhibitors.
(§2) The four inhibitors were purchased from Sigma (St Louis, MO).
(§3) Preparations of BChE and variants thereof were incubated in 96-well plate format with indicated concentrations of the inhibitors for 30 min at room temperature followed by activity measurements based on modified Ellman assay using 1 mM BTC as the substrate. IC50 values were determined by non-linear regression (GraphPad Prism) fit according to Equation (4).

WT pBChE = target: T2, WT pBChE (Homo sapiens, UniProt P06276); test: Inhibition rate constant for paraoxon, WT pBChE; settings: enzyme WT pBChE
T2 construct: barley alpha-amylase signal peptide (N); made in house; host or cells: Nicotiana benthamiana (transient, MagnICON/TMV vector, Agrobacterium infiltration)

[2] = target: T3, WT pBChE (plant-derived human butyrylcholinesterase) (Homo sapiens, UniProt P06276); test: Inhibition of BTC hydrolysis activity of WT pBChE; settings: for Fold increase in sensitivity relative to WT pBChE: WT pBChE (reference)
T3 construct: barley alpha-amylase signal peptide (N); made in house; host or cells: Nicotiana benthamiana (transient, MagnICON/TMV vector, Agrobacterium infiltration)
Protocol: as §1, §2, §3

pBChEV4 = target: T4, pBChEV4 (Homo sapiens, UniProt P06276, A227S/A356W/F255A/S315G/Y360G); test: Inhibition rate constant for paraoxon, pBChEV4; settings: enzyme pBChEV4
T4 construct: hexahistidine (C); barley alpha-amylase signal peptide (N); made in house; host or cells: Nicotiana benthamiana (transient, MagnICON/TMV vector)
T4 sequence (P06276 29-602 A227S/F255A/S315G/A356W/Y360G): as the sequence (P06276 29-602 A227S/S315G/A356W/Y360G) above, with F227A counted along it

[3] = target: T5, pBChEV5 (F227A/S287G/A328W/Y332G) (Homo sapiens, UniProt P06276, A356W/F255A/S315G/Y360G); test: Inhibition of BTC hydrolysis activity of pBChEV5; settings: for Fold increase in sensitivity relative to WT pBChE: pBChEV5 vs WT pBChE
T5 construct: hexahistidine (C); barley alpha-amylase signal peptide (N); made in house; host or cells: Nicotiana benthamiana (transient, MagnICON/TMV vector)
T5 sequence (P06276 29-602 F255A/S315G/A356W/Y360G): as the sequence (P06276 29-602 A227S/S315G/A356W/Y360G) above, with S199A, F227A counted along it
Protocol: as §1, §2, §3

[4] = target: T6, pBChEV2 (F227A/S287G/A328W/Y332A) (Homo sapiens, UniProt P06276, A356W/F255A/S315G/Y360A); test: Inhibition of BTC hydrolysis activity of pBChEV2; settings: for Fold increase in sensitivity relative to WT pBChE: pBChEV2 vs WT pBChE
T6 construct: hexahistidine (C); barley alpha-amylase signal peptide (N); made in house; host or cells: Nicotiana benthamiana (transient, MagnICON/TMV vector)
T6 sequence (P06276 29-602 F255A/S315G/A356W/Y360A): as the sequence (P06276 29-602 A227S/S315G/A356W/Y360G) above, with S199A, F227A, G332A counted along it
Protocol: as §1, §2, §3

[5] = target: T7, pBChEV4 (A199S/F227A/S287G/A328W/Y332G) (Homo sapiens, UniProt P06276, A227S/A356W/F255A/S315G/Y360G); test: Inhibition of BTC hydrolysis activity of pBChEV4; settings: for Fold increase in sensitivity relative to WT pBChE: pBChEV4 vs WT pBChE
T7 construct: hexahistidine (C); barley alpha-amylase signal peptide (N); made in house; host or cells: Nicotiana benthamiana (transient, MagnICON/TMV vector)
T7 sequence (P06276 29-602 A227S/F255A/S315G/A356W/Y360G): as the sequence (P06276 29-602 A227S/S315G/A356W/Y360G) above, with F227A counted along it
Protocol: as §1, §2, §3

[6] = target: T8, WT hBChE (human plasma-derived butyrylcholinesterase) (Homo sapiens, UniProt P06276); test: Inhibition of BTC hydrolysis activity of WT hBChE; settings: for Fold increase in sensitivity relative to WT pBChE: WT hBChE vs WT pBChE
T8 construct: we first compared WT human plasma-derived (hBChE) to pBChE; from tissue; host or cells: human plasma
Protocol: as §1, §2, §3

[7] = Radiometric (−)-cocaine hydrolysis assay; settings: substrate (−)-cocaine

## CCOP(=O)(OCC)Oc1ccc([N+](=O)[O-])cc1 [Paraoxon, diethyl (4-nitrophenyl) phosphate]
[1]
  Fold increase in sensitivity relative to WT pBChE: (3)^**** fold
[1]; listed as paraoxon
  Fold increase in sensitivity relative to WT pBChE: 3–7 fold
WT pBChE
  inhibition rate constant (ki): 52300 M⁻¹ s⁻¹
[2]
  Fold increase in sensitivity relative to WT pBChE: (1) fold
pBChEV4
  inhibition rate constant (ki): 283000 M⁻¹ s⁻¹
[3]
  Fold increase in sensitivity relative to WT pBChE: (46)^**** fold
[3]; listed as paraoxon
  Fold increase in sensitivity relative to WT pBChE: 40–50 fold
[4]
  Fold increase in sensitivity relative to WT pBChE: (38)^**** fold
[4]; listed as paraoxon
  Fold increase in sensitivity relative to WT pBChE: 40–50 fold
[5]
  Fold increase in sensitivity relative to WT pBChE: (6)^**** fold
[5]; listed as paraoxon
  Fold increase in sensitivity relative to WT pBChE: 3–7 fold
[6]
  Fold increase in sensitivity relative to WT pBChE: (0.9) fold

## CN(C)C(=O)Oc1cccc([N+](C)(C)C)c1 [Neostigmine, [3-(dimethylcarbamoyloxy)phenyl]-trimethylazanium;bromide]
[1]
  IC50: 204 nM
  Fold increase in sensitivity relative to WT pBChE: (1) fold
[1]; listed as neostigmine
  Fold increase in sensitivity relative to WT pBChE: near WT levels
[2]
  IC50: 229 nM
  Fold increase in sensitivity relative to WT pBChE: (1) fold
[3]
  IC50: 13.2 nM
  Fold increase in sensitivity relative to WT pBChE: (17)^**** fold
[3]; listed as neostigmine
  Fold increase in sensitivity relative to WT pBChE: 10–20 fold
[4]
  IC50: 17.8 nM
  Fold increase in sensitivity relative to WT pBChE: (13)^**** fold
[4]; listed as neostigmine
  Fold increase in sensitivity relative to WT pBChE: 10–20 fold
[5]
  IC50: 155 nM
  Fold increase in sensitivity relative to WT pBChE: (1)^**** fold
[5]; listed as neostigmine
  Fold increase in sensitivity relative to WT pBChE: near WT levels
[6]
  IC50: 162 nM
  Fold increase in sensitivity relative to WT pBChE: (1)^**** fold

B1: WT pBChE (protein, UniProt P06276 29-602, looked up)
Cholinesterase: EDDIIIATKNGKVRGMNLTVFGGTVTAFLGIPYAQPPLGRLRFKKPQSLTKWSDIWNATKYANSCCQNIDQSFPGFHGSEMWNPNTDLSEDCLYLNVWIPAPKPKNATVLIWIYGGGFQTGTSSLHVYDGKFLARVERVIVVSMNYRVGALGFLALPGNPEAPGNMGLFDQQLALQWVQKNIAAFGGNPKSVTLFGESAGAASVSLHLLSPGSHSLFTRAILQSGSFNAPWAVTSLYEARNRTLNLAKLTGCSRENETEIIKCLRNKDPQEILLNEAFVVPYGTPLSVNFGPTVDGDFLTDMPDILLELGQFKKTQILVGVNKDEGTAFLVYGAPGFSKDNNSIITRKEFQEGLKIFFPGVSEFGKESILFHYTDWVDDQRPENYREALGDVVGDYNFICPALEFTKKFSEWGNNAFFYYFEHRSSKLPWPEWMGVMHGYEIEFVFGLPLERRDNYTKAEEILSRSIVKRWANFAKYGNPNETQNNSTSWPVFKSTEQKYLTLNTESTRIMTKLRAQQCRFWTSFFPKVLEMTGNIDEAEWEWKAGFHRWNNYMMDWKNQFNDYTSKKESCVGL
modifications: plant-expressed
[7]
  k cat: 0.0433 s⁻¹

From PMC5585256 (Scientific Reports, 2017)
